Key:
[1] = Effects of meglumine in a human subject (Example 9); type: in vivo; conditions: orally daily, 7 months
Source text: A person suffering from high blood sugar was orally administered meglumine hydrochloride on a daily basis over the period of 7 months.

albumin/creatinine ratio = assay: Urinary albumin/creatinine; type: in vivo, KK.Cg-A^y/+/J and KK.Cg-A^+/+/J mice; conditions: 18 mM in drinking water, 12 weeks, not significant
Method: Urinary creatinine and albumin levels were measured in KK.Cg-A^y/+/J “mutant” diabetic mice and KK.Cg-A^+/+/J “control” mice treated with or without 18 mM meglumine hydrochloride in the drinking water for 12 weeks.

[2] = Effects of meglumine in a human subject (Example 10); type: in vivo; conditions: person
Method: A person, suffering from scleroderma and type 2 diabetes, overweight and with difficulty to lose through dieting and exercise, experiencing less energy than when younger, was administered meglumine hydrochloride (500 mg to 2000 mg) orally almost every day over 5 years.

[3] = Effects of meglumine in a human subject (Example 5); type: in vivo; conditions: person, 500-1,500 mg orally daily over 5 years
Method: A person suffering from right knee joint pain, and otherwise in good health, was orally administered 500-1,500 mg of meglumine hydrochloride on a daily basis over the period of 5 years (with two months off).

[4] = Effects of meglumine in a human subject (Example 6); type: in vivo; conditions: orally daily, one month
Source text: A person suffering from high blood pleasure was orally administered meglumine hydrochloride on a daily basis over the period of one month.

[5] = Effects of meglumine in a human subject (Example 7); type: in vivo; conditions: person on a blood thinner; orally daily, 1 month
Source text: A person on a blood thinner medication was orally administered meglumine hydrochloride on a daily basis over the period of 1 month.

[6] = Effects of meglumine in a human subject (Example 11): blood lipids, lipoproteins, inflammation markers; type: in vivo; conditions: person, type 2 diabetes, 3×500 mg orally, with metformin
Method: A person, suffering from type 2 diabetes, overweight (height of 5 feet 1 inch, and weight of 129 pounds, as of month 0) and with difficulty to lose weight through dieting and exercise, was administered meglumine hydrochloride (3×500 mg) orally over the period of 8 months. Over the duration of the study the subject was also administered metformin orally to manage their type 2 diabetes. The subject's blood was analyzed for lipids, lipoprotein particles and apolipoproteins, and inflammation/oxidation markers.

[7] = Effects of meglumine in a human subject (Example 8); type: in vivo; conditions: overweight person, 500-1,500 mg orally daily, 14 months
Method: A person was overweight and suffering from fatty liver, experienced sore joints, lacked energy and required extended recovery time after exercise & travel, was orally administered 500-1,500 mg of meglumine hydrochloride on a daily basis over the period of 14 months.

triglyceride = assay: Serum triglyceride levels; type: in vivo, KK.Cg-A^y/+/J diabetic mice; conditions: 18 mM in drinking water for 32 weeks; n=9; control 752.21±201.29; p<0.001
Method: Serum triglyceride levels were measured in KK.Cg-A^y/+/J diabetic mice treated with 18 mM meglumine hydrochloride in the drinking water for 32 weeks. […] A t-test was used to compare the mean values and a p<0.001 was calculated, indicating the decrease in plasma triglycerides in the meglumine treated mice is statistically significant.

[8] = 500 mg to 2000 mg orally over 5 years

## CNC[C@H](O)[C@@H](O)[C@H](O)[C@H](O)CO.Cl [meglumine hydrochloride]
[1]; person with high blood sugar, decrease from 202
  blood glucose level: 75 mg/dL
[1]; person with high blood sugar, without regain
  weight loss: 25 pounds
[1]; person
  mental capacity: increased mental capacity
  nail and hair health: improvement in nail and hair health
  sexual stamina and sexual performance: dramatically improved sexual stamina and sexual performance
  skin condition: improved
  vitality or energy levels: improved vitality or energy levels
albumin/creatinine ratio; KK.Cg-A^+/+/J control mice, without meglumine 2.5±1.2
  urinary albumin/creatinine ratio: 1.6±1.8
albumin/creatinine ratio; KK.Cg-A^y/+/J mutant diabetic mice, without meglumine 17.3±15.4
  urinary albumin/creatinine ratio: 12.4±8.7
[2]; scleroderma and type 2 diabetes, 500 mg to 2000 mg orally almost every day, first two and one half years
  weight lost: over 30 pounds
[2]; type 2 diabetes, 500 mg to 2000 mg orally over 5 years
  insulin and creatine/albumin levels: normal
[2]; type 2 diabetes, minimum dose of 500 mg three times a day
  blood glucose level: improved
[2]; 500 mg to 2000 mg orally
  HDL levels: stayed the same
  Lp-PLA level: went down
  fibrinogen homocysteine levels: stayed the same
[2]; [8]
  eye sight: improved
  mental capacity: has not deteriorated
  overall energy levels: increased
  overall skin tone and texture: improved
[2]; 500 mg to 2000 mg orally, from 0.58
  CRP level: < 0.3
[2]; 500 mg to 2000 mg orally, from 209, within the last 16 months
  LDL level: 160 mg/dL
[2]; 500 mg to 2000 mg orally, from 300, without diet change or any medicines
  cholesterol levels: 265 mg/dL
[3]
  body weight: overall weight loss/control effect
  increase in arm diameter: 1 inch
  mental capacity: increased mental capacity
  muscle-to-fat index: increase in muscle-to-fat index
  sexual stamina and sexual performance: improved sexual stamina and sexual performance
  skin condition: improved
  vitality or energy levels: improved vitality or energy levels
[3]; from 200 lb
  military press weights: 355 lb
[4]; person with high blood pressure, reduced from 220/110
  blood pressure: around 130/78
[4]; person
  sleep and energy: better sleep and felt more energetic
[4]; person, at least one dress size
  body weight: weight loss
[5]
  need for blood thinner medication: able to discontinue the use of the blood thinner
[6]; month 8 (month 0: 0.73)
  Apo B:Apo A-I ratio (calculated): 0.45
[6]; month 8 (month 0: 5)
  Lp(a) mass: 6 mg/dL
[6]; month 8 (month 0: 19)
  HDL2-C: 22 mg/dL
[6]; month 8 (month 0: 35)
  % sdLDL-C (calculated): 25%
[6]; month 8 (month 0: 44.3)
  HDL-P: 43.7 μmol-L
[6]; month 8 (month 0: 56)
  sdLDL-C: 28 mg/dL
[6]; month 8 (month 0: 69)
  Lipids: HDL-C: 71 mg/dL
[6]; month 8 (month 0: 133)
  Apo B: 79 mg/dL
[6]; month 8 (month 0: 135)
  Lipids: triglycerides: 82 mg/dL
[6]; month 8 (month 0: 152)
  Lp-PLA2: 172 ng/mL
[6]; month 8 (month 0: 160)
  Lipids: LDL-C direct: 111 mg/dL
[6]; month 8 (month 0: 183)
  Apo A-I: 176 mg/dL
[6]; month 8 (month 0: 196)
  Lipids: non-HDL-C (calculated): 134 mg/dL
[6]; month 8 (month 0: 265)
  Lipids: total cholesterol: 205 mg/dL
[6]; month 8 (month 0: 332)
  fibrinogen: 334 mg/dL
[6]; month 8 (month 0: 2,250)
  LDL-P: 1,529 nmol/L
[6]; month 8 (month 0: <0.3)
  hs-CRP: 0.3 mg/L
[7]
  mental capacity: increased mental capacity
  muscle strength: improved muscle strength
  nail and hair health: improvement in nail and hair health
  sexual stamina and sexual performance: improved sexual stamina and sexual performance
  skin condition: improved
  vitality or energy levels: improved vitality or energy levels
  weight lost per month: approximately 0.5 kg
[7]; from 108 kg
  body weight on average: 102 kg
triglyceride
  serum triglyceride levels: 322.66 ± 158.85 mg/dL
